# Experimental data: patent US10288629B1, “Method of assessing growth hormone deficiency in humans by a macimorelin containing composition” (AEterna Zentaris, Inc., priority 2017, dated 2019)
# Columns and labels:
# [1] = design: species or system human; settings: in vivo
# GH level [2] = experiment: agreement of the Macimorelin GHST with the ITT for diagnosis of AGHD; type: in vivo, human; settings: cut-off 2.8 ng/mL macimorelin, 5.1 ng/mL ITT, N = 139
# Method: The study protocol allowed for a 5 minutes time window for each of said time points, meaning that a blood sample collected for example within 25 to 35 min after GH provocation agent administration was […] collected for the 30 min time point.
# peak GH concentrations = experiment: peak GH response in the macimorelin GHST and ITT; type: in vivo, human; settings: all AGHD likelihood groups A-D; N=139; FIG. 5
# Method: Blood samples were collected before and 30, 45, 60, and 90 minutes after administration of macimorelin and before and 15, 30, 45, 60, 90 and 120 minutes after administration of insulin to the efficacy data set subjects and GH levels were determined for all samples.
# GH level [3] = experiment: repeatability of the macimorelin GHST; type: in vivo, human; settings: below or above cut-off point
# Source text: To assess the repeatability of the macimorelin GHST, 33 subjects with a valid first macimorelin test (core study) underwent a second macimorelin test (repeatability study extension).
# human GHS receptor = target: T1, human GHS receptor (Homo sapiens, UniProt Q92847); settings: membrane preparations from human hypothalamus and pituitary gland; compared with ghrelin; cited from earlier work
# T1 construct: membrane preparations containing the GHS-receptor derived from human hypothalamus and pituitary gland; from tissue; host or cells: human hypothalamus and pituitary gland membranes
# [4] = macimorelin sample: peak of 0-90 min
# [5] = macimorelin sample: peak of 45 & 60 min
# [6] = macimorelin sample: peak of 60 & 90 min
# T1 sequence (Q92847 whole entry): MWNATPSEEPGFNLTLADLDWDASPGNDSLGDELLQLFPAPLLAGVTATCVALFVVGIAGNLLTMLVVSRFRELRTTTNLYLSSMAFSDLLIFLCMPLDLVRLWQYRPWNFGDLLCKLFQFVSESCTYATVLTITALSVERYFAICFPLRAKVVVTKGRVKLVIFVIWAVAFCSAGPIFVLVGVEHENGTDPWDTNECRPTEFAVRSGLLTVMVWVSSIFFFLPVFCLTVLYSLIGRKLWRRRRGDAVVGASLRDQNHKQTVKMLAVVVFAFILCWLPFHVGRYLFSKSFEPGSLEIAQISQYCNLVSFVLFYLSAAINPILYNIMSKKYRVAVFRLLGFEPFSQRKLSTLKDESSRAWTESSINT
compound,measurement,setting,value
"ITT: insulin tolerance test: intravenous administration of insulin to induce hypoglycaemia, which leads to GH release; comparator GHST [reference compound]","Any TEAE (likely or possible related), % of subjects",[1],94.9%
same,"Any TEAE (likely or possible related), Frequency (number of subjects)",[1],149
same,"Any TEAE (likely or possible related), N AEs",[1],710
same,"Any TEAE, % of subjects",[1],96.2%
same,"Any TEAE, N AEs (number of all AEs)",[1],761
same,"Any test emergent severe AE, % of subjects",[1],7%
same,"severe TEAE asthenia, number of subjects",[1],4
same,"severe TEAE hunger, number of subjects",[1],3
same,"severe TEAE hyperhidrosis, number of subjects",[1],5
same,"severe TEAE nervousness, number of subjects",[1],2
same,"severe TEAE somnolence, number of subjects",[1],5
same,"severe TEAE tremor, % of subjects",[1],0.6%
same,"severe TEAE tremor, number of subjects",[1],1
"CC(C)(N)C(=O)N[C@H](Cc1c[nH]c2ccccc12)C(=O)N[C@H](Cc1c[nH]c2ccccc12)NC=O [Macimorelin, macimorelin]",Negative % agreement,GH level [2]; macimorelin sample: 30 min,73.85%
same,Positive % agreement,GH level [2]; macimorelin sample: 30 min,82.43%
same,Total % agreement,GH level [2]; macimorelin sample: 30 min,78.42%
same,Negative % agreement,GH level [2]; macimorelin sample: 45 min,86.15%
same,Positive % agreement,GH level [2]; macimorelin sample: 45 min,78.38%
same,Total % agreement,GH level [2]; macimorelin sample: 45 min,82.01%
same,Negative % agreement,GH level [2]; macimorelin sample: 60 min,95.31%
same,Positive % agreement,GH level [2]; macimorelin sample: 60 min,81.08%
same,Total % agreement,GH level [2]; macimorelin sample: 60 min,87.68%
same,Negative % agreement,GH level [2]; macimorelin sample: 90 min,84.62%
same,Positive % agreement,GH level [2]; macimorelin sample: 90 min,86.49%
same,Total % agreement,GH level [2]; macimorelin sample: 90 min,85.61%
same,Negative % agreement,GH level [2]; [4],95.38%
same,Positive % agreement,GH level [2]; [4],74.32%
same,Total % agreement,GH level [2]; [4],84.17%
same,Negative % agreement,GH level [2]; [5],95.38%
same,Positive % agreement,GH level [2]; [5],75.68%
same,Total % agreement,GH level [2]; [5],84.89%
same,Negative % agreement,GH level [2]; [6],95.38%
same,Positive % agreement,GH level [2]; [6],78.38%
same,Total % agreement,GH level [2]; [6],86.33%
same,Negative % agreement,GH level [2]; macimorelin sample: pre-dose,13.85%
same,Positive % agreement,GH level [2]; macimorelin sample: pre-dose,98.65%
same,Total % agreement,GH level [2]; macimorelin sample: pre-dose,58.99%
same,peak GH levels in the macimorelin GHST as compared to the ITT,peak GH concentrations,higher peak GH levels
same,result of second macimorelin test matching result of first test,GH level [3]; 33 subjects,94%
same,subjects with reproducible test outcome (number),GH level [3]; out of 33 subjects,31
same,diarrhea,[1]; human,1.9%
same,dizziness,[1]; human,3.9%
same,dysgeusia,[1]; human,4.5%
same,fatigue,[1]; human,3.9%
same,feeling hot,[1]; human,1.3%
same,headache,[1]; human,3.9%
same,hunger,[1]; human,3.2%
same,hyperhidrosis,[1]; human,1.3%
same,nasopharyngitis,[1]; human,1.3%
same,nausea,[1]; human,3.2%
same,sinus bradycardia,[1]; human,1.3%
same,upper respiratory tract infection,[1]; human,1.9%
same,binding potency to the human GHS receptor,human GHS receptor,"comparable to that of its natural ligand, ghrelin"
